Read-outs that look alike come from different tables or passages of the source.
What was measured:
OATP1B1 [1] = target: T1, OATP1B1 (Homo sapiens, UniProt Q9Y6L6)
T1 sequence (Q9Y6L6 1-691): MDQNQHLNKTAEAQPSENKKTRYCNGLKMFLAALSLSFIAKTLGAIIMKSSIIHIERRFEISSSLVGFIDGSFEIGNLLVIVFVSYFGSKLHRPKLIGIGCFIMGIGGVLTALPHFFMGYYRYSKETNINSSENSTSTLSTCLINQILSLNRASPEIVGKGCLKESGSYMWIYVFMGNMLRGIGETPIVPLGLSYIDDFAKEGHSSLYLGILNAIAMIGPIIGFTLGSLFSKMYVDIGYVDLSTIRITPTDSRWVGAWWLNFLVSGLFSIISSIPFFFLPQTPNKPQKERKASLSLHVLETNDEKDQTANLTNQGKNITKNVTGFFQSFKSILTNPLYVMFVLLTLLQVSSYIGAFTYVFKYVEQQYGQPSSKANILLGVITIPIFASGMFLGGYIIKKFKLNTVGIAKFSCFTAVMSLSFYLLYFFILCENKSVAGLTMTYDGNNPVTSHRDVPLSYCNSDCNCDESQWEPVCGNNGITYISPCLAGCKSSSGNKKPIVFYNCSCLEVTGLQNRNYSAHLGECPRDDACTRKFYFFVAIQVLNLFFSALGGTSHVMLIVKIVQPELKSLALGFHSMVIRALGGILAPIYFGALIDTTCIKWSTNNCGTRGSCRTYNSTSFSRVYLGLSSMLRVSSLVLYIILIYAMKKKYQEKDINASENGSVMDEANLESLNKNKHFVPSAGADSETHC

OATP1B3 [2] = target: T2, OATP1B3 (Homo sapiens, UniProt Q9NPD5)
T2 sequence (Q9NPD5 whole entry): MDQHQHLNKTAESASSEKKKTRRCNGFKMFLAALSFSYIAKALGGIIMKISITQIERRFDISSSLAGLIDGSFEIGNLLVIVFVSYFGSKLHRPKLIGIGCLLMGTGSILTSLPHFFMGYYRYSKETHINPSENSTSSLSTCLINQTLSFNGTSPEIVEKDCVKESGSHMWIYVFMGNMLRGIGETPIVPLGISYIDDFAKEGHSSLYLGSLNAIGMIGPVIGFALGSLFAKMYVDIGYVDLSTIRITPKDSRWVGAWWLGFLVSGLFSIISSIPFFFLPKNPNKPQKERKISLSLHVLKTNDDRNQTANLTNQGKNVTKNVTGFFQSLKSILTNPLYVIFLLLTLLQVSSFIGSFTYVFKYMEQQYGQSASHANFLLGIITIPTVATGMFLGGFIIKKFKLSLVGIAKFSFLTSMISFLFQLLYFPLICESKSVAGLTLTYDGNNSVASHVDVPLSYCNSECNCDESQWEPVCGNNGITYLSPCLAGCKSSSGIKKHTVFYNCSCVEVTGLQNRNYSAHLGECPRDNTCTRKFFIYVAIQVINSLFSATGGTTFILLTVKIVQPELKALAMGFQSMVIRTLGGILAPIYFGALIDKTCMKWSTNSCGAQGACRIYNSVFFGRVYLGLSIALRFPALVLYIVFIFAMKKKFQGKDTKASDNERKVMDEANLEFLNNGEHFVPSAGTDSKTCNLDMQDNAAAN

primary rat hepatocytes [3] = tested on: primary rat hepatocytes
primary rat hepatocytes [4] = tested on: primary rat hepatocytes; remark: listed apart in the source
primary rat hepatocytes [5] = tested on: primary rat hepatocytes; remark: listed apart in the source
OATP1B1 [6] = target: T1, OATP1B1; assay: cell-based
OATP1B3 [7] = target: T2, OATP1B3; assay: cell-based

SMILES: Nc1ncnc2c1nc(Br)n2C1OC2COP(O)(=S)OC2C1O (single isomer, unassigned) [Rp-8-Br-cAMPS, 8-Bromoadenosine-3′, 5′-cyclic monophosphorothioate, Rp-isomer]
- IC50 (OATP1B1 [1]): > 300 µM
- IC50 (OATP1B3 [2]): > 300 µM
- Effect on Nod-induced hepatocyte apoptosis (Fig. 1F) (primary rat hepatocytes [3]; 300 µM, 150 nM Nod): inhibited apoptotic morphology

SMILES: COC1C2OP(O)(=S)OCC2OC1n1c(Sc2ccc(Cl)cc2)nc2c(N)ncnc21 (single isomer, unassigned) [Rp-8-pCPT-2′-O-Me-cAMPS, 8-(4-Chlorophenylthio)-2′-O-methyladenosine-3′, 5′-cyclic monophosphorothioate, Rp-isomer]
- IC50 (OATP1B1 [1]): > 300 µM
- IC50 (OATP1B3 [2]): > 300 µM

SMILES: CO[C@H]1C2OP(O)(=S)OC[C@H]2O[C@H]1n1c(Sc2ccc(Cl)cc2)nc2c(N)ncnc21 (single isomer, unassigned) [Sp-8-pCPT-2′-O-Me-cAMPS, 8-(4-Chlorophenylthio)-2′-O-methyladenosine-3′, 5′-cyclic monophosphorothioate, Sp- isomer]
- IC50 (OATP1B1 [1]): 19.9 µM
- Ki (OATP1B1 [1]): 6.63 µM
- IC50 (OATP1B3 [2]): 8.7 µM
- Ki (OATP1B3 [2]): 2.33 µM
- Effect on Nod-induced hepatocyte apoptosis (Fig. 2A) (primary rat hepatocytes [3]): clear inhibition
- Effect on [3H]-Nod accumulation in hepatocytes (primary rat hepatocytes [4]): almost completely inhibited
- Effect on [14C]-glycocholic acid accumulation in hepatocytes (primary rat hepatocytes [5]; 50 µM): almost completely inhibited

SMILES: CO[C@H]1C2OP(=O)(O)OC[C@H]2O[C@H]1n1c(Br)nc2c(N)ncnc21 (some centres unmarked) [8-Br-2′-O-Me-cAMP, 8-Bromo-2′-O-methyladenosine-3′, 5′-cyclic monophosphate]
- IC50 (OATP1B1 [1]): > 300 µM
- Effect on Nod-induced apoptosis / Nod transport, OATP1B3-transfected HEK293T cells (OATP1B3 [2]): some inhibition
- IC50 (OATP1B3 [2]): > 300 µM

SMILES: CO[C@@H]1[C@H](O)[C@@H](CO)O[C@H]1n1c(Sc2ccc(Cl)cc2)nc2c(N)ncnc21 [8-pCPT-2′-O-Me-Ado, 8-(4-Chlorophenylthio)-2′-O-methyladenosine]
- IC50 (OATP1B1 [6]): 31.3 µM
- Ki (OATP1B1 [6]): 10.4 µM
- IC50 (OATP1B3 [7]): 17.2 µM
- Ki (OATP1B3 [7]): 4.61 µM

SMILES: CO[C@@H]1[C@@H]2OP(=O)(OCOC(C)=O)OC[C@H]2O[C@H]1n1c(Sc2ccc(Cl)cc2)nc2c(N)ncnc21 (some centres unmarked) [8-pCPT-2′-O-Me-cAMP-AM, 8-(4-Chlorophenylthio)-2′-O-methyladenosine-3′, 5′-cyclic monophosphate, acetoxymethyl ester]
- Effect on [3H]-Nod accumulation in hepatocytes (primary rat hepatocytes [4]): did not affect
- Effect on [14C]-glycocholic acid accumulation in hepatocytes (primary rat hepatocytes [5]; 50 µM): no inhibitory effect

SMILES: O=P1(O)OCC2OC(n3c(Sc4ccc(Cl)cc4)nc4c(Nc5ccccc5)ncnc43)C(O)C2O1 (centres unmarked) [8-pCPT-6-Phe-cAMP, 8-(4-Chlorophenylthio)-N^6-phenyladenosine-3′, 5′-cyclic monophosphate]
- Ki (OATP1B1 [1]): 2.07 µM
- Ki (OATP1B3 [2]): 0.804 µM

SMILES: O=P1(O)OC[C@H]2O[C@@H](n3c(Sc4ccc(Cl)cc4)nc4c(Nc5ccccc5)ncnc43)C[C@@H]2O1 [8-pCPT-6-Phe-dcAMP, 8-(4-Chlorophenylthio)-N^6-phenyladenosine-2′-deoxyadenosine 3′, 5′-cyclic monophosphate]
- IC50 (OATP1B1 [1]): 8.2 µM
- Ki (OATP1B1 [1]): 2.73 µM
- IC50 (OATP1B3 [2]): 8 µM
- Ki (OATP1B3 [2]): 2.14 µM

SMILES: Nc1ncnc2c1ncn2[C@@H]1O[C@H](CO)[C@@H](O)[C@H]1O [Adenosine, adenosine]
- IC50 (OATP1B1 [6]): > 300 µM
- IC50 (OATP1B3 [7]): > 300 µM

SMILES: CCCC(=O)Nc1ncnc2c1ncn2[C@@H]1O[C@@H]2COP(=O)(O)O[C@H]2[C@H]1O [Analog 6-MB-cAMP, N^6-Monobutyryladenosine-3′, 5′-cyclic monophosphate]
- Effect on Nod-induced apoptosis / Nod transport, OATP1B1-transfected HEK293T cells (OATP1B1 [1]): no inhibitory effect
- IC50 (OATP1B1 [1]): > 300 µM
- Effect on Nod-induced apoptosis / Nod transport, OATP1B3-transfected HEK293T cells (OATP1B3 [2]): no inhibitory effect
- IC50 (OATP1B3 [2]): > 300 µM
- Effect on Nod-induced hepatocyte apoptosis (Fig. 1A) (primary rat hepatocytes [3]): no change in apoptosis induction
- [14C]-GCA accumulation rel. to control (primary rat hepatocytes [5]; 50 µM): about 1.7
- [14C]-GCA accumulation rel. to control (primary rat hepatocytes [5]; 400 µM): 1.1

SMILES: Nc1ncnc2c1nc(Br)n2[C@@H]1O[C@@H]2COP(=O)(O)O[C@H]2[C@H]1O [Analog 8-Br-cAMP, 8-Bromoadenosine-3′, 5′-cyclic monophosphate]
- IC50 (OATP1B1 [1]): > 300 µM
- IC50 (OATP1B3 [2]): > 300 µM

SMILES: Nc1nc2c(nc(Br)n2[C@@H]2O[C@@H]3COP(=O)(O)O[C@H]3[C@H]2O)c(=O)[nH]1 [Analog 8-Br-cGMP, 8-Bromoguanosine-3′, 5′-cyclic monophosphate]
- Effect on Nod-induced apoptosis / Nod transport, OATP1B1-transfected HEK293T cells (OATP1B1 [1]): inactive
- IC50 (OATP1B1 [1]): > 300 µM
- Effect on Nod-induced apoptosis / Nod transport, OATP1B3-transfected HEK293T cells (OATP1B3 [2]): inactive
- IC50 (OATP1B3 [2]): > 300 µM

SMILES: Nc1ncnc2c1nc(Sc1ccc(Cl)cc1)n2[C@@H]1O[C@H](CO)[C@@H](O)[C@H]1O [Analog 8-pCPT-Ado, 8-(4-Chlorophenylthio)adenosine]
- IC50 (OATP1B1 [6]): > 300 µM
- IC50 (OATP1B3 [7]): 150 µM
- Ki (OATP1B3 [7]): 40.2 µM

SMILES: Nc1ncnc2c1nc(Sc1ccc(Cl)cc1)n2[C@@H]1O[C@@H]2COP(=O)([O-])O[C@H]2[C@H]1O.[Na+] [Analog 8-pCPT-cAMP, 8-(4-Chlorophenylthio)adenosine-3′, 5′-cyclic monophosphate]
- Effect on Nod-induced apoptosis / Nod transport, OATP1B1-transfected HEK293T cells (OATP1B1 [1]): inhibits
- IC50 (OATP1B1 [1]): 130 µM
- Ki (OATP1B1 [1]): 43.3 µM
- Effect on Nod-induced apoptosis / Nod transport, OATP1B3-transfected HEK293T cells (OATP1B3 [2]): inhibits
- IC50 (OATP1B3 [2]): 49.6 µM
- Ki (OATP1B3 [2]): 13.3 µM
- Effect on Nod-induced hepatocyte apoptosis (Fig. 1A) (primary rat hepatocytes [3]): inhibited completely apoptotic morphology
- Effect on Nod-induced hepatocyte apoptosis (Fig. 2A) (primary rat hepatocytes [3]): clear inhibition
- [14C]-GCA accumulation compared to control (primary rat hepatocytes [5]): 60%

SMILES: Nc1nc2c(nc(Sc3ccc(Cl)cc3)n2[C@@H]2O[C@@H]3COP(=O)(O)O[C@H]3[C@H]2O)c(=O)[nH]1 [Analog 8-pCPT-cGMP, 8-(4-Chlorophenylthio)guanosine-3′, 5′-cyclic monophosphate]
- IC50 (OATP1B1 [1]): 259 µM
- Ki (OATP1B1 [1]): 86.3 µM
- IC50 (OATP1B3 [2]): 88.8 µM
- Ki (OATP1B3 [2]): 29.6 µM

SMILES: Nc1ncnc2c1nc(Sc1ccc(Cl)cc1)n2C1CC2OP(=O)(O)OCC2O1 (centres unmarked) [Analog 8-pCPT-dcAMP, 8-(4-Chlorophenylthio)adenosine-2′-deoxyadenosine-3′, 5′-cyclic monophosphate]
- IC50 (OATP1B1 [1]): 223 µM
- Ki (OATP1B1 [1]): 74.7 µM
- IC50 (OATP1B3 [2]): 55.7 µM
- Ki (OATP1B3 [2]): 14.9 µM
- Effect on Nod-induced hepatocyte apoptosis (Fig. 2A) (primary rat hepatocytes [3]): blocked Nod-induced apoptosis
- Effect on [14C]-glycocholic acid accumulation in hepatocytes (primary rat hepatocytes [5]): inhibited uptake

SMILES: O=C1OC(c2ccc(O)c(S(=O)(=O)O)c2)(c2ccc(O)c(S(=O)(=O)O)c2)c2c(Br)c(Br)c(Br)c(Br)c21 [BSP, sulfobromophthalein]
- Effect on [3H]-Nod accumulation in hepatocytes (primary rat hepatocytes [4]): complete inhibition
- Effect on [14C]-glycocholic acid accumulation in hepatocytes (primary rat hepatocytes [5]; 50 µM): complete inhibition

SMILES: CCCC(=O)Nc1ncnc2c1ncn2[C@@H]1O[C@@H]2COP(=O)(O)O[C@H]2[C@H]1OC(=O)CCC [DB-cAMP, N^6, 2′-O-Dibutyryladenosine-3′, 5′-cyclic monophosphate]
- Effect on Nod-induced apoptosis / Nod transport, OATP1B1-transfected HEK293T cells (OATP1B1 [1]; human): but not to OATP1B1 activity
- IC50 (OATP1B1 [6]): > 300 µM
- IC50 (OATP1B3 [7]): 119 µM

SMILES: CC(C)Cn1c(=O)n(C)c(=O)c2[nH]cnc21 [IBMX]
- Effect on Nod-induced apoptosis, OATP1B1-transfected cells (OATP1B1 [1]; 250 µM): did not affect
- Effect on Nod-induced apoptosis, OATP1B3-transfected cells (OATP1B3 [2]; 250 µM): did not affect

SMILES: C/C=C1/C(=O)N[C@@H](C(=O)O)[C@H](C)C(=O)N[C@@H](CCCNC(=N)N)C(=O)N[C@@H](/C=C/C(C)=C/[C@H](C)[C@H](Cc2ccccc2)OC)[C@H](C)C(=O)N[C@@H](C(=O)O)CCC(=O)N1C [Nod, nodularin]
- Km (OATP1B1 [1]; read-out: Km for Nod, OATP1B1): 0.05 µM
- Km (OATP1B3 [2]; read-out: Km for Nod, OATP1B3): 0.22 µM

SMILES: Nc1ncnc2c1ncn2C1OC2COP(=O)(O)OC2C1O (centres unmarked) [cAMP]
- Effect on Nod-induced apoptosis / Nod transport, OATP1B1-transfected HEK293T cells (OATP1B1 [1]): did not affect
- Effect on Nod-induced apoptosis / Nod transport, OATP1B3-transfected HEK293T cells (OATP1B3 [2]): did not affect
- IC50 (OATP1B1 [6]): > 300 µM
- IC50 (OATP1B3 [7]): > 300 µM

SMILES: Nc1nc2c(ncn2[C@@H]2O[C@@H]3COP(=O)(O)O[C@H]3[C@H]2O)c(=O)[nH]1 [cGMP]
- Effect on Nod-induced apoptosis / Nod transport, OATP1B1-transfected HEK293T cells (OATP1B1 [1]): did not affect
- IC50 (OATP1B1 [1]): > 300 µM
- Effect on Nod-induced apoptosis / Nod transport, OATP1B3-transfected HEK293T cells (OATP1B3 [2]): did not affect
- IC50 (OATP1B3 [2]): > 300 µM

SMILES: CO[C@H]1/C=C/O[C@@]2(C)Oc3c(C)c(O)c4c(O)c(cc(O)c4c3C2=O)NC(=O)/C(C)=C\C=C\[C@H](C)[C@H](O)[C@@H](C)[C@@H](O)[C@@H](C)[C@H](OC(C)=O)[C@@H]1C [rifamycin SV, Rifamycin SV]
- Effect on Nod-induced apoptosis / Nod transport, OATP1B1-transfected HEK293T cells (OATP1B1 [1]): abolished
- Effect on Nod-induced apoptosis / Nod transport, OATP1B3-transfected HEK293T cells (OATP1B3 [2]): abolished
